We go through 16 molecules from US8778975B2, “Helicobacter pylori eradicating agent having inhibitory activity on gastric acid secretion” (Link Geonomics, Inc., priority 2006, dated 2014).

Values after ≈ are worked out from the molar mass of the structure shown. Like-named read-outs stand apart in the source and are kept apart here.

A short description of series [1]: Stability test in acidic hydrochloric acid solution (pH 2), residual ratio by HPLC. The class given is physicochemical. As to conditions: for Residual ratio at pH 2: pH 2 HCl, 37° C.; for Stability in acid (residual ratio at pH = 2: %): Table 8 summary, time not stated. The protocol: A test for the stability of thioether compounds (hereinafter, referred to SH-form) and sulfoxide compounds (hereinafter, referred to SO-form) at pH 2.0 was carried out. (Method) Each of the specimens produced in Examples 1 to 3 and Reference Examples 6 to 8 (sulfinyl products of Examples 1 to 3) was maintained in a solution adjusted to pH 2 with 0.5 or 1.0 mmol/L HCl (37° C.) for a predetermined time period. Subsequently, the solution was adjusted to pH 8 with triethylamine, and then an HPLC analysis was performed to calculate the residual ratio.

Series [2] concerns Helicobacter pylori standard strain ATCC 43504. The series is described as follows: Antibacterial potency test (MIC), Columbia agar medium, Pharmacological Test Example 1. Format: cell-based. The protocol: A test was conducted to see whether there is a difference in the anti-Helicobacter pylori activity depending on the number of carbon atoms of the linear alkyl group for a substituent at the 4-position of the pyridine ring.
For the bacterium Helicobacter pylori, a standard strain ATCC 43504 was used to perform in vitro tests in Columbia agar medium. Each of the specimens was dissolved in a 1% DMSO solution, and the bacteria were cultured at 37° C. and pH 7.0 for 3 days. On the 4th day, the minimum growth inhibitory concentration (MIC, μg/ml) was determined.

For series [3], the system named is Helicobacter pylori bacteria (ATCC 43504). Briefly: Antiulcer action and bacteria eradicating action in Helicobacter pylori-infected Mongolian gerbils. The class given is in vivo. To be noted: for Number of Bacteria (average) (log CFU): gastric mucosa. The protocol:
Mongolian gerbils were experimentally infected with Helicobacter pylori bacteria, and the antiulcer action and the Helicobacter pylori bacteria eradicating action of the compounds of the present invention were tested.
Male Mongolian gerbils (30 to 40 g), five animals in each group, were orally inoculated with Helicobacter pylori bacteria (ATCC 43504) at 1.6×10^7 CFU/0.5 ml/mouse, and bred for one week, and then drug was administered two times a day for two weeks. Thereafter, the […] were bred for three weeks, and then the rats were fasted for 18 hours and subjected to abdominal section, followed by autopsy. The severity of gastric ulcer, the number of Helicobacter pylori bacteria in the gastric mucosa, and the antibody titer were measured.

Series [4] has as its system gastric acid secretion. The series is described as follows: Gastric acid secretion inhibiting action, pylorus ligation in rats. The class given is in vivo, SD rats. As to conditions: 30 mg/kg to the duodenum, 4 hours after pylorus ligation, average. The protocol: The gastric acid secretion inhibiting action of the compounds of the present invention was tested. A group of five animals of male SD rats (about 200 g) were used, and the medicaments were respectively dissolved in 0.5% CMC and were all administered to the duodenum respectively at 30 mg/kg. The rats were fasted overnight from the day before the administration of the test substance to the point of administration, and pylorus ligation was performed.

In series [5] the test system is Helicobacter pylori standard strains ATCC 43504, ATCC 43629, ATCC 43570 and clinically separated strains. The series is described as follows: Anti-Helicobacter pylori activity (MIC), standard and clinically separated strains, Pharmacological Test Example 2. The class given is cell-based. The protocol:
For the bacterium Helicobacter pylori, standard strains ATCC 43504, ATCC 43629 and ATCC 43570 were used to perform in vitro tests in Columbia agar medium. The bacteria were cultured at 37° C. and pH 7.0 for 3 days. On the 4th day, the minimum growth inhibitory concentration (MIC, μg/ml) was determined. Each of the specimens was dissolved in a 1% DMSO solution. Furthermore, amoxicillin and clarithromycin were used as control drugs of antibacterial substance. Further, the compound described in the article of Thomas C. Kuehler (J. Med.

The mark [6] stands for this setting: ATCC43504, 72 h, ATCC 43504, 37° C., pH 7.0, 3 days, read-out: MIC.
The mark [7] stands for this setting: ATCC43504, Table 8 summary, strain not stated, read-out: Anti-HP activity (MIC: μg/mL).
The mark [8] stands for this setting: Helicobacter pylori, ATCC43504, Table 8, amount of administration (mg) 30, read-out: HP eradication based on Mongolian gerbil infection model: Eradication rate (%).
The mark [9] stands for this setting: Clinically separated strain PT1045482.
Where [10] appears, read: Clinically separated strain PT1045483.
Setting [11] is: Clinically separated strain PT1045484.
Setting [12] is: 30 mg/kg, two times a day for two weeks.
The mark [13] stands for this setting: Helicobacter pylori, ATCC43504, 336 h, 30 mg/kg, two times a day for two weeks, read-out: Eradication rate (%).

As to `CCCCCOc1ccnc(C[S+]([O-])c2nc3ccccc3[nH]2)c1C` (racemic) [Reference Example 6, (±)-2-[(4-n-pentyloxy-3-methylpyridin-2-yl)-methylsulfinyl]-1H-benzimidazole], the “Residual ratio at pH 2” value was 100% in series [1] (0 min), 0% in series [1] (30 min) and 0% in series [1] (2 hours). The “Stability in acid (residual ratio at pH = 2: %)” value in series [1] turned out to be 0%. Further, the MIC in series [2] (setting [6]) and in series [2] (setting [7]) was 3 µg/mL (≈ 8.39 µM) throughout. In addition, the responders at 30 mg/kg in series [3] (setting [8]) came to 0%.
As for `CCCCCCOc1ccnc(C[S+]([O-])c2nc3ccccc3[nH]2)c1C` (racemic) [Reference Example 7, (±)-2-[(4-n-hexyloxy-3-methylpyridin-2-yl)-methylsulfinyl]-1H-benzimidazole], the “Residual ratio at pH 2” value was 100% in series [1] (0 min), 0% in series [1] (30 min) and 0% in series [1] (2 hours). In series [1], the “Stability in acid (residual ratio at pH = 2: %)” value was found to be 0%. Moreover, the MIC in series [2] (setting [6]) and in series [2] (setting [7]) was 3 µg/mL (≈ 8.08 µM) throughout. For the same molecule, the responders at 30 mg/kg in series [3] (setting [8]) was found to be 0%.
Take `CCCCCCCOc1ccnc(C[S+]([O-])c2nc3ccccc3[nH]2)c1C` (racemic) [Reference Example 8, (±)-2-[(4-n-heptyloxy-3-methylpyridin-2-yl)-methylsulfinyl]-1H-benzimidazole]: the figures for the “Residual ratio at pH 2” value in series [1] (0 min), in series [1] (30 min) and in series [1] (2 hours) were 100%, 0% and 0%, respectively. The “Stability in acid (residual ratio at pH = 2: %)” value in series [1] was found to be 0%. The MIC in series [2] (setting [6]) and in series [2] (setting [7]) was 3 µg/mL (≈ 7.78 µM) each time. Also, in series [3] (setting [8]), the responders at 30 mg/kg turned out to be 0%.
`CN/C(=N/CCSCc1nc[nH]c1C)NC#N` [Cimetidine]: in series [4], the “Gastric acid secretion inhibiting action: Amount of gastric acid” value was determined as 54%, the “Gastric acid secretion inhibiting action: Amount of gastric acid secretion” value came to 74% and the “Gastric acid secretion inhibiting action: Total acidity” value turned out to be 41%.
Regarding `Cc1c(OCC(C)C)ccnc1CSc1nc2ccccc2[nH]1` [Comparative Example 1, 2-[(4-isobutoxy-3-methylpyridin-2-yl)methylthio]-1H-benzimidazole], the MIC in series [5] (setting [9]) is 3 µg/mL (≈ 9.16 µM); in series [5] (setting [10]), 3 µg/mL (≈ 9.16 µM); in series [5] (setting [11]), 1 µg/mL (≈ 3.05 µM); in series [5] (Standard strain ATCC 43504), 3 µg/mL (≈ 9.16 µM); in series [5] (Standard strain ATCC 43570), 1 µg/mL (≈ 3.05 µM); in series [5] (Standard strain ATCC 43629), 1 µg/mL (≈ 3.05 µM). Besides, the “Antibody titer (average)” value in series [3] (30 mg/kg) is recorded as 0.49. Besides, the “Number of Bacteria (average) (log CFU)” value in series [3] (30 mg/kg) came to 6.3 log CFU. Moreover, in series [3] (setting [12]), the “Number of Ulcers discovered” value is recorded as 5/5. Further, the responders at 30 mg/kg in series [3] (setting [13]) was determined as 0%.
`CC(C)COc1ccnc(CSc2nc3ccccc3[nH]2)c1` [Comparative Example 2, 2-[(4-isobutoxy-pyridin-2-yl)methylthio]-1H-benzimidazole]: the MIC in series [5] (setting [9]) came out at 10 µg/mL (≈ 31.9 µM); in series [5] (setting [10]), 10 µg/mL (≈ 31.9 µM); in series [5] (setting [11]), 10 µg/mL (≈ 31.9 µM); in series [5] (Standard strain ATCC 43504), 10 µg/mL (≈ 31.9 µM); in series [5] (Standard strain ATCC 43570), 5 µg/mL (≈ 16 µM); in series [5] (Standard strain ATCC 43629), 10 µg/mL (≈ 31.9 µM). Moreover, the “Antibody titer (average)” value in series [3] (30 mg/kg) is 0.55. In addition, the “Number of Bacteria (average) (log CFU)” value in series [3] (30 mg/kg) came to 5.9 log CFU. Further, in series [3] (setting [12]), the “Number of Ulcers discovered” value was 5/5. For the same molecule, the responders at 30 mg/kg in series [3] (setting [13]) was determined as 0%.
In the case of `CCCCOc1ccnc(CSc2nc3ccccc3[nH]2)c1C` [Example 4, 2-[(4-n-butoxy-3-methylpyridin-2-yl)-methylthio]-1H-benzimidazole], the MIC in series [2] (setting [6]) came to 0.3 µg/mL (≈ 0.916 µM).
In the case of `CCCCCCCCOc1ccnc(CSc2nc3ccccc3[nH]2)c1C` [Example 5, 2-[(4-n-octyloxy-3-methylpyridin-2-yl)-methylthio]-1H-benzimidazole], in series [2] (setting [6]), the MIC was found to be 0.3 µg/mL (≈ 0.782 µM).
For the molecule `Cc1c(OCC(F)(F)F)ccnc1C[S+]([O-])c1nc2ccccc2[nH]1` (stereo not shown) [LAZ, Lansoprazole], the “Residual ratio at pH 2” value in series [1] (0 min) amounted to 100%; in series [1] (30 min) it was 0%; in series [1] (2 hours) it was 0%. The “Stability in acid (residual ratio at pH = 2: %)” value in series [1] amounted to 0%. Also, in series [2] (setting [7]), the MIC turned out to be 16 µg/mL (≈ 43.3 µM). Besides, in series [3] (setting [8]), the responders at 30 mg/kg stood at 0%.
`COc1ccc2[nH]c([S+]([O-])Cc3ncc(C)c(OC)c3C)nc2c1` (stereo not shown) [OMZ, Omeprazole]: the “Stability in acid (residual ratio at pH = 2: %)” value in series [1] worked out at 0%. Besides, the MIC in series [2] (setting [7]) came to 128 µg/mL (≈ 371 µM). Further, in series [3] (10 mg/kg), the “Antibody titer (average)” value turned out to be 0.52 and the “Number of Bacteria (average) (log CFU)” value is reported as 6.0 log CFU. For the same molecule, the “Number of Ulcers discovered” value in series [3] (10 mg/kg, two times a day for two weeks) is reported as 5/5. Besides, the responders at 10 mg/kg in series [3] (Helicobacter pylori, ATCC43504, 336 h, 10 mg/kg, two times a day for two weeks, read-out: Eradication rate (%)) was determined as 0%. Also, the responders at 30 mg/kg in series [3] (setting [8]) turned out to be 0%.
Consider `COCCCOc1ccnc(C[S+]([O-])c2nc3ccccc3[nH]2)c1C` (stereo not shown) [RAZ, Rabeprazole], for which, in series [1], the “Stability in acid (residual ratio at pH = 2: %)” value was 0%. In addition, the MIC in series [2] (setting [7]) came to 8 µg/mL (≈ 22.3 µM). Further, the responders at 30 mg/kg in series [3] (setting [8]) worked out at 0%.
As to `COc1ccnc(CSc2nc3ccccc3[nH]2)c1C` [Reference Example 1, 2-[(4-methoxy-3-methylpyridin-2-yl)-methylthio]-1H-benzimidazole], the MIC in series [2] (setting [6]) worked out at 3 µg/mL (≈ 10.5 µM).
Still for that read-out and setting: for `CCOc1ccnc(CSc2nc3ccccc3[nH]2)c1C` [Reference Example 2, 2-[(4-ethoxy-3-methylpyridin-2-yl)-methylthio]-1H-benzimidazole] the value was 1 µg/mL (≈ 3.34 µM); for `CCCOc1ccnc(CSc2nc3ccccc3[nH]2)c1C` [Reference Example 3, 2-[(4-n-propoxy-3-methylpyridin-2-yl)-methylthio]-1H-benzimidazole], 1 µg/mL (≈ 3.19 µM); for `CCCCCCCCCOc1ccnc(CSc2nc3ccccc3[nH]2)c1C` [Reference Example 4, 2-[(4-n-nonyloxy-3-methylpyridin-2-yl)-methylthio]-1H-benzimidazole], 1 µg/mL (≈ 2.52 µM).
`CCCCCCCCCCOc1ccnc(CSc2nc3ccccc3[nH]2)c1C` [Reference Example 5, 2-[(4-n-decyloxy-3-methylpyridin-2-yl)-methylthio]-1H-benzimidazole]: the MIC in series [2] (setting [6]) came to 3 µg/mL (≈ 7.29 µM).
